pIC50: −log10 of the molar value.
Each compound was assayed against T1, Murine PKD1 kinase domain (Mus musculus, UniProt Q62101) (assay: PKD1 (Murine Kinase Domain) Enzyme Activity Assay (IMAP fluorescence polarisation)). Conditions: 10 μM ATP, 60 minutes, room temperature.
T1 construct: hexahistidine (pFastBac HTb leader) (N); made in house; host or cells: Sf9 insect cells, baculovirus (Bac-to-Bac HT, pFastBac HTb)
T1 sequence (Q62101 with tags, fused parts or gaps R683W): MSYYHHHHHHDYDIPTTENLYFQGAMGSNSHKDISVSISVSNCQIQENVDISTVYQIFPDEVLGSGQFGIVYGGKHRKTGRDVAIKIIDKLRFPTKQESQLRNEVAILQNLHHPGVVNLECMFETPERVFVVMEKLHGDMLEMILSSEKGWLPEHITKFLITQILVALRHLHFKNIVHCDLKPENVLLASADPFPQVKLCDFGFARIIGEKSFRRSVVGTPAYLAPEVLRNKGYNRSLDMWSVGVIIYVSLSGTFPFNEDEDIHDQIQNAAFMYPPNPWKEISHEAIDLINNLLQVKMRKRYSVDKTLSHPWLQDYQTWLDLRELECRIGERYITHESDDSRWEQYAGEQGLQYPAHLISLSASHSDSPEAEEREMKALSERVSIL
Assay type: biochemical
Excerpt: The DNA sequence corresponding to murine PKD1 (see FIG. 1) was inserted into pFastBAc Htb (Invitrogen, USA) at BamH1 and EcoR1 sites using standard molecular biology techniques.
The PKD1 described above was expressed as a hexahistidine tagged protein construct using a commercially available baculoviral expression system that induces protein production in insect cell culture (Bac-to-Bac® HT Baculovirus Expression System, Invitrogen). Protein was typically expressed by inoculating 1 L of sf9 cells with a genetically modified baculovirus containing the gene for the kinase domain of PKD1. Sf9 cells were obtained from ICR Ltd.
Purification of PKD1 was achieved by standard chromatographic procedures. Capture from crude centrifuged lysed cell supernatant was achieved using metal affinity chromatography (GE Healthcare Life Sciences, HiTrap Chelating chromatography column), and fractions showing PKD1 (as assessed by gel electrophoresis and western blot) were further purified by a single polish purification step performed using a mono Q anion exchange chromatography system (GE Healthcare Life Sciences, HiTrap HP Q column). […] This protocol describes the method for screening compounds as inhibitors of Protein Kinase D activity in a 384 well microplate format fluorescence polarisation IMAP assay performed using the Biomek FX.
Kinase Enzyme: Murine PKD1 kinase domain at ˜100 μg/mL, was purified from baculovirus (as described above), obtained from aliquots stored at −70° C. PKD was prepared with a final concentration of 0.1 μg/mL by diluting 1:300 in Reaction Buffer (30 μL per 9 mL-5 mL per plate with an additional 4 mL dead volume) and vortexing prior to use. It was necessary to check this concentration regularly in case of enzyme degradation.
(also known as MAPKAP K2 substrate) was obtained from Molecular Devices (Product code R7127). It was used at 300 nM by diluting 20 μM stock 1:66 in Kinase/Reaction Buffer (135 μL per 9 mL; 75 μL per 5 mL Reaction Buffer for blank wells requiring <1 mL per place with an additional 4 mL dead volume).
A 1 mM ATP stock in Reaction Buffer was prepared from a 10 mM stock in 20 mM NaOH and stored as aliquots at −70° C. It was used at 40 μM by diluting 1 mM stock 1:25 in Reaction Buffer (240 μL per 6 mL-2 mL per plate with an additional 4 mL dead volume) and vortexing prior to use.
IMAP Reagents: IMAP Binding Reagent (product code R7207) and Binding Buffer (product code R7208) were obtained from Molecular Devices and stored at +4° C. The beads were gently re-suspended before diluting by 1:400 in buffer (Binding Buffer is supplied as a 5× stock and so was diluted with water prior to use) and then vortexing before addition to wells. 16 mL water with 4 mL Binding Buffer and 50 μL Binding Reagent were used per plate (17 mL per plate with an additional 3 mL dead volume).
13 μL Substrate in Reaction Buffer was added to ‘blank’ wells to give 200 nM reaction concentration. […] 2 μL 10% DMSO/water was added to ‘blank’ and ‘control’ wells. 5 μL ATP in Reaction Buffer was added to all wells to give 10 μM reaction concentration. The reaction mixture was then incubated at room temperature for 60 minutes. The incubation period was followed by the addition of 40 μL IMAP Binding Reagent in Binding Buffer to all wells. The reaction was then further incubated at room temperature for […].
Percentage inhibition was calculated based on activity of the test sample minus the average values in the blank wells relative to the average values measured in control wells minus the average values in the blank wells.
IC50 values were calculated from 10 point dose sigmoid ‘dose-response’ curves using Xlfit software (IDBS inc, USA). Data were fitted to a 4 parameter logistic model/sigmoidal dose response:
where: A=fit minimum (locked to 0); B=fit maximum (locked to 100); C=fit midpoint (pre-fit to 1); D=slope at linear portion of curve, hillslope (pre-fit to 0.1)

SMILES | pIC50
CN(C)CCNC(=O)c1cccc(-c2cnc(N)c(-c3cc4ccccc4s3)c2)c1 [Y-011, 3-(6-Amino-5-benzo[b]thiophen-2-yl-pyridin-3-yl)-N-(2-dimethylamino-ethyl)-benzamide] | > 6.00
CN(C)CCNC(=O)c1cccc(-c2cnc(N)c(-c3cc4ccccc4o3)c2)c1 [Y-012, 3-(6-Amino-5-benzofuran-2-yl-pyridin-3-yl)-N-(2-dimethylamino-ethyl)-benzamide] | > 6.00
CN(C)CCNC(=O)c1cccc(-c2cnc(N)c(-c3cccc(-c4ccccc4)c3)c2)c1 [Y-013, 3-(6-Amino-5-biphenyl-3-yl-pyridin-3-yl)-N-(2-dimethylamino-ethyl)-benzamide] | > 6.00
CN(C)CCNC(=O)c1cccc(-c2cnc(N)c(-c3ccc(-c4ccccc4)cc3)c2)c1 [Y-014, 3-(6-Amino-5-biphenyl-4-yl-pyridin-3-yl)-N-(2-dimethylamino-ethyl)-benzamide] | > 6.00
CN(C)CCNC(=O)c1cccc(-c2cnc(N)c(-c3cccc4c3sc3ccccc34)c2)c1 [Y-015, 3-(6-Amino-5-dibenzothiophen-4-yl-pyridin-3-yl)-N-(2-dimethylamino-ethyl)-benzamide] | > 6.00
CN(C)CCNC(=O)c1cccc(-c2cnc(N)c(-c3cccc4cnccc34)c2)c1 [Y-018, 3-(6-Amino-5-isoquinolin-5-yl-pyridin-3-yl)-N-(2-dimethylamino-ethyl)-benzamide] | 5.00 to 6.00
CN(C)CCNC(=O)c1cccc(-c2cnc(N)c(-c3cccc4ccccc34)c2)c1 [Y-019, 3-(6-Amino-5-naphthalen-1-yl-pyridin-3-yl)-N-(2-dimethylamino-ethyl)-benzamide] | > 6.00
CN(C)CCNC(=O)c1cccc(-c2cnc(N)c(-c3ccc4ccccc4c3)c2)c1 [Y-020, 3-(6-Amino-5-naphthalen-2-yl-pyridin-3-yl)-N-(2-dimethylamino-ethyl)-benzamide] | > 6.00
CN(C)CCNC(=O)c1cccc(-c2cnc(N)c(-c3cccc4ncccc34)c2)c1 [Y-022, 3-(6-Amino-5-quinolin-5-yl-pyridin-3-yl)-N-(2-dimethylamino-ethyl)-benzamide] | > 6.00
CN(C)CCNC(=O)c1cccc(-c2cnc(N)c(-c3cccc4cccnc34)c2)c1 [Y-023, 3-(6-Amino-5-quinolin-8-yl-pyridin-3-yl)-N-(2-dimethylamino-ethyl)-benzamide] | > 6.00
COc1ncc(-c2cc(-c3cccc(C(=O)NCCN(C)C)c3)cnc2N)c(OC)n1 [Y-029, 3-[6-Amino-5-(2,4-dimethoxy-pyrimidin-5-yl)-pyridin-3-yl]-N-(2-dimethylamino-ethyl)-benzamide] | > 6.00
CN(C)CCNC(=O)c1cccc(-c2cnc(N)c(-c3ccccc3OCc3ccccc3)c2)c1 [Y-030, 3-[6-Amino-5-(2-benzyloxy-phenyl)-pyridin-3-yl]-N-(2-dimethylamino-ethyl)-benzamide] | 5.00 to 6.00
CN(C)CCNC(=O)c1cccc(-c2cnc(N)c(-c3ccc(-c4ccccc4)c(F)c3)c2)c1 [Y-031, 3-[6-Amino-5-(2-fluoro-biphenyl-4-yl)-pyridin-3-yl]-N-(2-dimethylamino-ethyl)-benzamide] | > 6.00
CN(C)CCNC(=O)c1cccc(-c2cnc(N)c(-c3cccc(OCc4ccccc4)c3)c2)c1 [Y-038, 3-[6-Amino-5-(3-benzyloxy-phenyl)-pyridin-3-yl]-N-(2-dimethylamino-ethyl)-benzamide] | > 6.00

Second part, the compound after the results:

pIC50 | SMILES
> 6.00 | NC(=O)c1cccc(-c2cnc(N)c(-c3ccoc3)c2)c1 [Y-016, 3-(6-Amino-5-furan-3-yl-pyridin-3-yl)-benzamide]
> 6.00 | CN(C)CCNC(=O)c1cccc(-c2cnc(N)c(-c3ccoc3)c2)c1 [Y-017, 3-(6-Amino-5-furan-3-yl-pyridin-3-yl)-N-(2-dimethylamino-ethyl)-benzamide]
5.00 to 6.00 | NC(=O)c1cccc(-c2cnc(N)c(-c3cccc4ncccc34)c2)c1 [Y-021, 3-(6-Amino-5-quinolin-5-yl-pyridin-3-yl)-benzamide]
> 6.00 | CN(C)CCNC(=O)c1cccc(-c2cnc(N)c(-c3cccs3)c2)c1 [Y-024, 3-(6-Amino-5-thiophen-2-yl-pyridin-3-yl)-N-(2-dimethylamino-ethyl)-benzamide]
> 6.00 | NC(=O)c1cccc(-c2cnc(N)c(-c3ccc4[nH]ccc4c3)c2)c1 [Y-025, 3-[6-Amino-5-(1H-indol-5-yl)-pyridin-3-yl]-benzamide]
> 6.00 | CN(C)CCNC(=O)c1cccc(-c2cnc(N)c(-c3ccc4[nH]ccc4c3)c2)c1 [Y-026, 3-[6-Amino-5-(1H-indol-5-yl)-pyridin-3-yl]-N-(2-dimethylamino-ethyl)-benzamide]
> 6.00 | CN(C)CCNC(=O)c1cccc(-c2cnc(N)c(-c3ccc4c(ccn4C)c3)c2)c1 [Y-027, 3-[6-Amino-5-(1-methyl-1H-indol-5-yl)-pyridin-3-yl]-N-(2-dimethylamino-ethyl)-benzamide]
> 6.00 | CN(C)CCNC(=O)c1cccc(-c2cnc(N)c(-c3ccc4c(c3)CCO4)c2)c1 [Y-028, 3-[6-Amino-5-(2,3-dihydro-benzofuran-5-yl)-pyridin-3-yl]-N-(2-dimethylamino-ethyl)-benzamide]
> 6.00 | CN(C)CCNC(=O)c1cccc(-c2cnc(N)c(-c3ccc(F)c(F)c3)c2)c1 [Y-033, 3-[6-Amino-5-(3,4-difluoro-phenyl)-pyridin-3-yl]-N-(2-dimethylamino-ethyl)-benzamide]
5.00 to 6.00 | COc1ccc(-c2cc(-c3cccc(C(N)=O)c3)cnc2N)cc1OC [Y-034, 3-[6-Amino-5-(3,4-dimethoxy-phenyl)-pyridin-3-yl]-benzamide]
> 6.00 | COc1ccc(-c2cc(-c3cccc(C(=O)NCCN(C)C)c3)cnc2N)cc1OC [Y-035, 3-[6-Amino-5-(3,4-dimethoxy-phenyl)-pyridin-3-yl]-N-(2-dimethylamino-ethyl)-benzamide]
> 6.00 | Cc1ccc(-c2cc(-c3cccc(C(=O)NCCN(C)C)c3)cnc2N)cc1C [Y-036, 3-[6-Amino-5-(3,4-dimethyl-phenyl)-pyridin-3-yl]-N-(2-dimethylamino-ethyl)-benzamide]
> 6.00 | CN(C)CCNC(=O)c1cccc(-c2cnc(N)c(-c3cc(Cl)cc(Cl)c3)c2)c1 [Y-037, 3-[6-Amino-5-(3,5-dichloro-phenyl)-pyridin-3-yl]-N-(2-dimethylamino-ethyl)-benzamide]
> 6.00 | CN(C)CCNC(=O)c1cccc(-c2cnc(N)c(-c3ccc(F)c(Cl)c3)c2)c1 [Y-039, 3-[6-Amino-5-(3-chloro-4-fluoro-phenyl)-pyridin-3-yl]-N-(2-dimethylamino-ethyl)-benzamide]
> 6.00 | CN(C)CCNC(=O)c1cccc(-c2cnc(N)c(-c3cccc(Cl)c3)c2)c1 [Y-040, 3-[6-Amino-5-(3-chloro-phenyl)-pyridin-3-yl]-N-(2-dimethylamino-ethyl)-benzamide]
> 6.00 | CN(C)CCNC(=O)c1cccc(-c2cnc(N)c(-c3cccc(C#N)c3)c2)c1 [Y-041, 3-[6-Amino-5-(3-cyano-phenyl)-pyridin-3-yl]-N-(2-dimethylamino-ethyl)-benzamide]

From patent US20110098325A1, “PYRIDINE BENZAMIDES AND PYRAZINE BENZAMIDES USED AS PKD INHIBITORS” (CANCER RESEARCH TECHNOLOGY LIMITED, priority 2006, published 2011)
